Experimental data as given in patent publication US12377079B2, “Antibacterial compounds and uses thereof” (The Children's Medical Center Corporation, priority 2018, dated 2025).
Entries after “also recorded” stand apart in the source; their conditions may differ.

What was measured:
K. pneumoniae (Kp233) [1] = assay: Compound impact on bacterial viability (exponential and stationary phase); assay type: cell-based, Klebsiella pneumoniae; details: 100 μg/mL compound + PAβN 40 μg/ml, 4 hr, exponential and stationary phase
Protocol: Compound impact on bacterial viability. […] One hundred μL of each compound preparation was dispensed into the wells of a microtiter plate. Negative (untreated) wells contained LB with or without PAβN only. Stationary phase cell viability. A glycerol stock of the carbapenem-susceptible clinical strain of K. pneumoniae (Kp233) was inoculated into 1.5 mL of LB and incubated overnight (approximately 18 hr) at 37° C. with shaking. […] Cells were incubated statically at 37° C. for 4 hr, and viable counts were determined by plating. Exponential phase cell viability. Overnight cultures of Kp233 were diluted 1:5,000 into 50 mL of LB broth and incubated at 37° C. with shaking at 200 rpm. […] These cells were also washed twice with NS and inoculated into the wells of a microtiter plate prepared as described above. Cells were incubated statically at 37° C. for 4 hr, and viable counts were determined by plating.

HeLa S3 cells = assay: Alamar Blue assay for cytotoxicity; assay type: cell-based, human; details: 20 hours
Protocol: Alamar Blue assay for cytotoxicity. HeLa S3 cells were cultured in Dulbecco's modified Eagle medium supplemented with 10% fetal bovine serum, 100 U/mL penicillin, and 100 μg/mL streptomycin. Each well of a 96-well microtiter plate (Nunclon Delta Surface, Thermo Scientific) was seeded with 10,000 cells in 100 μL of culture medium. Cells were incubated for 18 hr in a humidified incubator at 37° C. with 5% CO2 to allow attachment. Compounds were added to the adherent cells to yield a final concentration of 13 and 107 μg/mL. Positive control wells contained 0.1% Triton X-100, carrier control wells contained DMSO, and negative control wells contained medium and cells without DMSO. After addition of compounds, 0.1% Triton, or DMSO, plates were returned to the incubator. Cell viability was measured by resazurin reduction. Alamar Blue reagent (Invitrogen) was added to the cells after a 1.5 hr incubation with the test compounds. Cells were incubated for 20 hr, and then fluorescence was measured using the Infinite 200 (Tecan) with excitation and emission wavelengths of 550 nm and 590 nm, respectively. To calculate viability, the average fluorescence value of Triton-treated positive control wells was subtracted from that of untreated wells or wells containing test compounds. These values were then divided by the average fluorescence of untreated wells to give cell viability as a percentage of the negative control.

Lassa virus entry = details: PubChem BioAssay; cited from earlier work
K. pneumoniae (Kp233) [2] = assay: Morphometric analysis by phase contrast microscopy; assay type: cell-based, Klebsiella pneumoniae; details: stationary phase cells, 4 hr; compounds 100 μl/mI alone or with PAβN, ampicillin 150 μg/mL
Protocol: (§1) Morphometric analysis. Carbapenem-susceptible Kp233 were treated as described for stationary phase viability assays, with the exception that negative control wells contained no DMSO and no antimicrobials. Ampicillin (150 μg/mL) was used as a positive control. Cells were incubated statically at 37° C. for 4 hr. Thirty μL from each well was transferred into a 24-well plate filled with 300 μL of LB broth. Images were captured with a 40× magnification lens using a Nikon Eclipse TE2000-E microscope. Morphometric analysis was carried out using IPLab 4.0 software.

MRSA = assay: Minimum inhibitory concentration (MIC); details: Staphylococcus aureus, read-out: Minimum inhibitory concentration (MIC)
Kp233/pJBA110 = assay: GFP fluorescence assay (protein synthesis); details: low concentrations, 15 hr
A. baumanii = assay: Minimum inhibitory concentration (MIC)
[3] = test system: CR-K. pneumoniae (ATCC BAA-1705); assay: Minimum inhibitory concentration (MIC)
[4] = test system: E. coli urine isolate EC236; assay: Minimum inhibitory concentration (MIC); details: Escherichia coli, read-out: Minimum inhibitory concentration (MIC)
[5] = molecular target: Human tyrosyl-DNA phosphodiesterase 1 (TDP1) (Homo sapiens, UniProt Q9NUW8); details: PubChem BioAssay; cited from earlier work
K. pneumoniae Kp233 = assay: Minimum inhibitory concentration (MIC); details: Klebsiella pneumoniae, KP233, read-out: Minimum inhibitory concentration (MIC)
[6] = Particulate matter in aqueous media (micrographs); assay type: physicochemical; details: 100 μg/mL in culture medium
Protocol: as §1

Group A streptococcus = assay: Minimum inhibitory concentration (MIC); details: read-out: Minimum inhibitory concentration (MIC)
resistant GNR = assay: MIC with and without efflux pump inhibitor PAβN, resistant GNR as a group
P. aeruginosa PA01 = assay: Minimum inhibitory concentration (MIC)
[7] = test system: E. coli urine isolate EC235; assay: Minimum inhibitory concentration (MIC); details: Escherichia coli, read-out: Minimum inhibitory concentration (MIC)
[8] = test system: S. aureus teichoic acid biosynthesis; details: secondary screens, after a hit in the primary screen; cited from earlier work

Sequence of Human tyrosyl-DNA phosphodiesterase 1 (TDP1) (Q9NUW8 whole entry): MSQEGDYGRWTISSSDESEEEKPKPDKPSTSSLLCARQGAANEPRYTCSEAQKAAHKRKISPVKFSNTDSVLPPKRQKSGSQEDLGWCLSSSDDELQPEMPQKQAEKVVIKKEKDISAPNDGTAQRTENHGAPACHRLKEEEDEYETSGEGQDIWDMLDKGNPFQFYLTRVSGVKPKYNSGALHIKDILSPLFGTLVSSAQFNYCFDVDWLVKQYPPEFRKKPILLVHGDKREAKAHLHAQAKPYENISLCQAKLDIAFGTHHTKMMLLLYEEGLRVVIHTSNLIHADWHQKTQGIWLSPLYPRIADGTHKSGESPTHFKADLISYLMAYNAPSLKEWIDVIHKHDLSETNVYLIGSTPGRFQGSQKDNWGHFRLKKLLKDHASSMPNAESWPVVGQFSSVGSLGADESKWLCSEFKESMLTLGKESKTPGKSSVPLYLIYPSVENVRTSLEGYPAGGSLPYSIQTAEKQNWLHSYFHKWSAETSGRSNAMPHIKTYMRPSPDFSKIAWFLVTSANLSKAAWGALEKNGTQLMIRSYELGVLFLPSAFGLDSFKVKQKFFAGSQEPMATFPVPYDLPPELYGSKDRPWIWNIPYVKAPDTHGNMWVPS

Compound: Cc1nn2c(=O)cc(-c3ccc(Cl)cc3)[nH]c2c1-c1ccccc1 [Compound N08]
- Bacterial viability (CFU) with efflux pump inhibition (K. pneumoniae (Kp233) [1]): significantly potentiated the killing activity; also recorded: significantly decrease the viability
- Toxicity to HeLa S3 cells (viability by resazurin reduction) (HeLa S3 cells; 13 and 107 μg/mL): minimal toxicity
- Toxicity to HeLa S3 cells (viability by resazurin reduction) (HeLa S3 cells; higher concentration (107 μg/mL)): moderately toxic
- Inhibition of Lassa virus entry (screen) (Lassa virus entry): flagged
- Cell shape / average particle size (K. pneumoniae (Kp233) [2]): do not significantly alter cell shape
- MIC (MRSA): < 0.75 µg/mL
- Bacterial growth (OD) and GFP fluorescence (Kp233/pJBA110): interfered with GFP fluorescence but not growth
- Minimum inhibitory concentration (MIC) (A. baumanii; A. baumanii, PAβN + (40 μg/mL)): 1.5 µg/mL
- MIC (A. baumanii; Acinetobacter baumannii, read-out: Minimum inhibitory concentration (MIC)): > 96 µg/mL
- Minimum inhibitory concentration (MIC) ([3]; CR-K. pneumoniae ATCC BAA-1705, PAβN + (40 μg/mL)): 6 µg/mL
- MIC ([3]; Klebsiella pneumoniae, ATCCBAA1705, read-out: Minimum inhibitory concentration (MIC)): > 96 µg/mL
- MIC [4]: > 96 µg/mL
- Inhibition of TDP1 (screen) [5]: flagged
- MIC (K. pneumoniae Kp233): > 96 µg/mL
- Particulate matter in micrographs (insolubility in aqueous media) [6]: particulate matter was observed
- MIC (Group A streptococcus): > 96 µg/mL
- Reduction of MIC by addition of PAβN (resistant GNR): 1-2 logs
- Minimum inhibitory concentration (MIC) (P. aeruginosa PA01; P. aeruginosa PA01, PAβN + (40 μg/mL)): 12 µg/mL
- MIC (P. aeruginosa PA01; Pseudomonas aeruginosa, PA01, read-out: Minimum inhibitory concentration (MIC)): > 96 µg/mL
- MIC [7]: > 96 µg/mL
- Inhibition of teichoic acid biosynthesis [8]: not found to have this activity
